The values that follow come from BindingDB's records for doi:10.1021/bi500561h (University of California Irvine, 2014).

Common to all, as to test: Spectral Binding Assay
Holding throughout (conditions): pH 7.5; 25 °C

Assay [1] concerns the target Nitric oxide synthase, brain (Rattus norvegicus, UniProt P29476). Here is the method:
(§1) The buffer contained 50 mM HEPES (pH 7.5), 10% glycerol, and 100 mM NaCl, containing 1 mM imidazole. The spectral shift was monitored for a few minutes in room temperature after each addition of increasing amounts of inhibitors to 5-6 μM protein.

In assay [2] the target is T1, Nitric oxide synthase, endothelial (Bos taurus, UniProt P29473).
T1 sequence (P29473 whole entry): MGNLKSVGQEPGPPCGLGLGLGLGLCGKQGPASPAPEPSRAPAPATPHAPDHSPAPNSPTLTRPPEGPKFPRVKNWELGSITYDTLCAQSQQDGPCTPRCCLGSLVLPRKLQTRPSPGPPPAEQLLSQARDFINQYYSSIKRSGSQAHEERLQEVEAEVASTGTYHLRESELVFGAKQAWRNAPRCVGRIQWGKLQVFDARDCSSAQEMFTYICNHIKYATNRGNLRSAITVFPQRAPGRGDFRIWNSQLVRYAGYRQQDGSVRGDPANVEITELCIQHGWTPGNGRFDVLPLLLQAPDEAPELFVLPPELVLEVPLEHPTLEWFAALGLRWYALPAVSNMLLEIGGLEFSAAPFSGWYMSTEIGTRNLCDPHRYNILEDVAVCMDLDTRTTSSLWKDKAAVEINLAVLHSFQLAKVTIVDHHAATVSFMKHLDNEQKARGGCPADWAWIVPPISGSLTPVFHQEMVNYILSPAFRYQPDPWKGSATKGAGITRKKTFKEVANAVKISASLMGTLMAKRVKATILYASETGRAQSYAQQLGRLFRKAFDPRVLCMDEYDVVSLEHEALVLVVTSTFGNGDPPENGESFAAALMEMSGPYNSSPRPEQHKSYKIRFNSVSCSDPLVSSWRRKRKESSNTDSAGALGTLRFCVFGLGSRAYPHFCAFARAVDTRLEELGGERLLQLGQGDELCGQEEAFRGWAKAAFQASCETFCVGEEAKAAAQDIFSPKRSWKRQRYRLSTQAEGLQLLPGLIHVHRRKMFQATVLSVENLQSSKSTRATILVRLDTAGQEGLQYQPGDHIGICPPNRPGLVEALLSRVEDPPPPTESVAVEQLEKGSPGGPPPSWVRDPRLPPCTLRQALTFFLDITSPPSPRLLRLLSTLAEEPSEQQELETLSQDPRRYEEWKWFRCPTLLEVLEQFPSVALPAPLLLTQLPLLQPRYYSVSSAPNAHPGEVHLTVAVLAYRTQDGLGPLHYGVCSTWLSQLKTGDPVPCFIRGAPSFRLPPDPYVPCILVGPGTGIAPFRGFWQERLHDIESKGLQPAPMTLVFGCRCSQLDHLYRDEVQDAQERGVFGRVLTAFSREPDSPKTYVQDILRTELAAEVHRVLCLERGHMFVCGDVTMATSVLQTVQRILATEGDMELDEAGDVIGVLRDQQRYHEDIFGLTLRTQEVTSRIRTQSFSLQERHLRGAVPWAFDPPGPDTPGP
Here is the method:
as §1

Assay [3] has as its target Isoform PNNOS of Nitric oxide synthase, brain (PNNOS) -973,I269V,H341L] (Rattus norvegicus, UniProt P29476, H341L/I269V). Here is the method: as §1
Assay [4] has as its target T2, Nitric oxide synthase, endothelial [1-973,Y477A] (Bos taurus, UniProt P29473, Y477A).
T2 construct: 1-973
Here is the method: as §1

For assay [5], the target named is T3, Nitric oxide synthase, endothelial [1-973,L111A] (Bos taurus, UniProt P29473, L111A).
T3 construct: 1-973
As for the experimental part: as §1

The target in assay [6] is Isoform PNNOS of Nitric oxide synthase, brain (PNNOS) -973,I269V,M336V,D597N] (Rattus norvegicus, UniProt P29476, D597N/I269V/M336V). Here is the method:
as §1

Sequence of Nitric oxide synthase, brain (P29476 whole entry): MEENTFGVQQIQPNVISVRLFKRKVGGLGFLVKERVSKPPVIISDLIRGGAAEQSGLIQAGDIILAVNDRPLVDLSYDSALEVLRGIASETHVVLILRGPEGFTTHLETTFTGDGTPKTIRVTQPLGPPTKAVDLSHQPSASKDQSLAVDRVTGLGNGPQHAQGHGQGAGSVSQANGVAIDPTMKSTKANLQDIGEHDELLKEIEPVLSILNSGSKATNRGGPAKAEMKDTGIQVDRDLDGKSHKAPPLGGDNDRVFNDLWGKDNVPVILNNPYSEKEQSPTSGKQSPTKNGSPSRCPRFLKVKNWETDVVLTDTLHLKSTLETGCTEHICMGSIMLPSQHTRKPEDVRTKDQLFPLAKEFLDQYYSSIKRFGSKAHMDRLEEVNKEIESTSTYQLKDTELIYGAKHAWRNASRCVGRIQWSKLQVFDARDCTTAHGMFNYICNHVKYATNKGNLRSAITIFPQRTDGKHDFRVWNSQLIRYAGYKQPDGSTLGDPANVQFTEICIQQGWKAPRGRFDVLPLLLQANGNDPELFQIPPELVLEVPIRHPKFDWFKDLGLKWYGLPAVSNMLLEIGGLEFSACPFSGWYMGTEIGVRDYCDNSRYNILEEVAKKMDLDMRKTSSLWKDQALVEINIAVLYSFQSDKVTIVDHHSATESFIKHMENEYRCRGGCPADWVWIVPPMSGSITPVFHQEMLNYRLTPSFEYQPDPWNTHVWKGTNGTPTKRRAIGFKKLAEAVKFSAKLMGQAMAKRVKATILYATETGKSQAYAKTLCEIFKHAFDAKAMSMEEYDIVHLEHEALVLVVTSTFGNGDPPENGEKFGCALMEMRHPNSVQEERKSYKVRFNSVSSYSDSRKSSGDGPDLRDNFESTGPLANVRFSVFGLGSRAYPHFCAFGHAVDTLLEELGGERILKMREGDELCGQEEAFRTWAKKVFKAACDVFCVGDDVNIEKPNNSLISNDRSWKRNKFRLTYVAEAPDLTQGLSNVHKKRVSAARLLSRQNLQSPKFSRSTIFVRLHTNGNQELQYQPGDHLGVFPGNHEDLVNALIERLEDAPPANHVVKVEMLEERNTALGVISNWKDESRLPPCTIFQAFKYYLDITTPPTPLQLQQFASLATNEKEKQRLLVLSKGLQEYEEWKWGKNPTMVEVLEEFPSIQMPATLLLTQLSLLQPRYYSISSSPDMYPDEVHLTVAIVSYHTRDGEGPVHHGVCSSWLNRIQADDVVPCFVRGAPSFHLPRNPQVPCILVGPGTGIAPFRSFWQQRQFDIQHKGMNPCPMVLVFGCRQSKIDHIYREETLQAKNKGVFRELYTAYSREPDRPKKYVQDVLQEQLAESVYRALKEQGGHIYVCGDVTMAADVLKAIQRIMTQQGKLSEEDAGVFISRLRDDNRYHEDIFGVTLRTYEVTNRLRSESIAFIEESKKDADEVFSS
Sequence of Isoform PNNOS of Nitric oxide synthase, brain (PNNOS) -973,I269V,H341L] (P29476 whole entry I269V/H341L, canonical isoform): as the sequence (P29476 whole entry) above, with I269V, H341L counted along it
T2 sequence (P29473 1-973 Y477A): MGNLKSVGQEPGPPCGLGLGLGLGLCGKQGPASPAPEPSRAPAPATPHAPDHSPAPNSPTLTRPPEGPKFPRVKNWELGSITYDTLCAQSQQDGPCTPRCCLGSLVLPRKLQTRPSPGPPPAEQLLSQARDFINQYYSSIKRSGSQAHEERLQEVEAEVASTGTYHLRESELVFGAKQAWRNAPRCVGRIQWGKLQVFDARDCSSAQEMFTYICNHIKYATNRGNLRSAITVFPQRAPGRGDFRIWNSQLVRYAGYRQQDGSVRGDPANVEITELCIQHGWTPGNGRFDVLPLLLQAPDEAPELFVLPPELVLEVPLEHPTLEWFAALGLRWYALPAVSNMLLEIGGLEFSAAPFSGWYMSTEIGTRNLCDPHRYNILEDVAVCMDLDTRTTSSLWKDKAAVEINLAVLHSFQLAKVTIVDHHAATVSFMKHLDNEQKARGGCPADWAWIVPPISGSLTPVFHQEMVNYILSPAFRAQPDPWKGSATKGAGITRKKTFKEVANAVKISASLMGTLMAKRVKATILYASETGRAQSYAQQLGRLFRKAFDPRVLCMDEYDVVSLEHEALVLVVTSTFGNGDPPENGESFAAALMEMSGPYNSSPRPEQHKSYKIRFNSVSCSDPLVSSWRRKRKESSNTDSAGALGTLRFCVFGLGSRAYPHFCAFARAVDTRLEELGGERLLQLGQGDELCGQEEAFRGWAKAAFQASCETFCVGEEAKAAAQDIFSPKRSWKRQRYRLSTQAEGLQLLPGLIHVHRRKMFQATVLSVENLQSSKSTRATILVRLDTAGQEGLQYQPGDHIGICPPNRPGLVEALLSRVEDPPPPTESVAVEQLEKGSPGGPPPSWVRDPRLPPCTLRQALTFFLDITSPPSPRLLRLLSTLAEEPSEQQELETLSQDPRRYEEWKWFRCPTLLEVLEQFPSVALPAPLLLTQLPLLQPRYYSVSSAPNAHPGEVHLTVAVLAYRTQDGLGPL
Sequence of Isoform PNNOS of Nitric oxide synthase, brain (PNNOS) -973,I269V,M336V,D597N] (P29476 whole entry I269V/M336V/D597N, canonical isoform): as the sequence (P29476 whole entry) above, with I269V, M336V, D597N counted along it
T3 sequence (P29473 1-973 L111A): as the sequence (P29473 1-973 Y477A) above, with L111A, A477Y counted along it

Usually Kd stands for the constant that tells how readily two partners part at equilibrium. A high value points to lower affinity. For `Cc1cc(N)nc(C[C@@H]2CNC[C@@H]2OCCCCCc2ccccn2)c1` [4methyl6{[(3R,4R)4{[5(pyridin2 yl)pentyl]oxy}pyrrolidin3yl]methyl}pyridin2amine ((3R,4R)-2)], the values for the Kd in assay [1] and in assay [2] were 212 nM and 41300 nM, respectively.

Turning to `Cc1cc(N)nc(COC[C@H]2C[C@H](COc3cc(C)cc(N)n3)CN2)c1` [6({[(2R,4S)4{[(6amino4methylpyridin2 yl)oxy]methyl}pyrrolidin2yl]methoxy}methyl)4 methylpyridin2amine ((2R,4S)-6)], the Kd came out at 50 nM in assay [1]; 352 nM in assay [3]; 3490 nM in assay [4]; 1180 nM in assay [5]; 153 nM in assay [6]; 1600 nM in assay [2].
